Experimental data: ChEMBL document CHEMBL1147850, “Conversion of some 2(3H)-furanones bearing a pyrazolyl group into other heterocyclic systems with a study of their antiviral activity” (2007)

Legend:
Format in all cases: functional
Design in all cases: scale not given: the % may be the effect or the level left
Hepatovirus A [1] = assay: Antiviral activity against HAV in Vero cells assessed as plaque infectivity reduction at 10 ug/ml
Human alphaherpesvirus 1 [2] = assay: Antiviral activity against HSV1 in Vero cells assessed as plaque infectivity reduction at 20 ug/ml
Human alphaherpesvirus 1 [3] = assay: Antiviral activity against HSV1 in Vero cells assessed as plaque infectivity reduction at 10 ug/ml
Hepatovirus A [4] = assay: Antiviral activity against HAV in Vero cells assessed as plaque infectivity reduction at 20 ug/ml

Question: Which Activity (Hepatovirus A [1]) does the source give for `O=C1OC(c2ccc(Cl)cc2)=C/C1=C\c1cn(-c2ccccc2)nc1-c1ccccc1` here?
Answer: 40%

Question: And the Activity (Human alphaherpesvirus 1 [2])?
Answer: 0%

Question: And the Activity (Human alphaherpesvirus 1 [3])?
Answer: 0%

Question: What about the Activity (Hepatovirus A [4]) of the same molecule?
Answer: 60%

Question: Which Activity (Hepatovirus A [1]) does the source give for `COc1ccc(C2=C/C(=C\c3cn(-c4ccccc4)nc3-c3ccccc3)C(=O)N2Cc2ccccc2)cc1` here?
Answer: 0%

Question: And the Activity (Human alphaherpesvirus 1 [2])?
Answer: 45%

Question: What about the Activity (Human alphaherpesvirus 1 [3]) of the same molecule?
Answer: 23%

Question: What about the Activity (Hepatovirus A [4]) of the same molecule?
Answer: 0%

Question: For `NNC(=O)/C(=C/c1cn(-c2ccccc2)nc1-c1ccccc1)CC(=O)c1ccc(Cl)cc1`, which Activity (Hepatovirus A [1]) is on record?
Answer: 20%

Question: And the Activity (Human alphaherpesvirus 1 [2])?
Answer: 42.8%

Question: And the Activity (Human alphaherpesvirus 1 [3])?
Answer: 26%

Question: What about the Activity (Hepatovirus A [4]) of the same molecule?
Answer: 30%

Question: Which results are given for `O=C(NNC(=O)c1ccccc1)/C(=C/c1cn(-c2ccccc2)nc1-c1ccccc1)CC(=O)c1ccc(Cl)cc1`?
Answer: Activity (Hepatovirus A [1]): 30%; Activity (Human alphaherpesvirus 1 [2]): 38%; Activity (Human alphaherpesvirus 1 [3]): 10%; Activity (Hepatovirus A [4]): 60%

Question: Which results are given for `NC(=O)NNC(=O)/C(=C/c1cn(-c2ccccc2)nc1-c1ccccc1)CC(=O)c1ccc(Cl)cc1`?
Answer: Activity (Hepatovirus A [1]): 0%; Activity (Human alphaherpesvirus 1 [2]): 52%; Activity (Human alphaherpesvirus 1 [3]): 42.8%; Activity (Hepatovirus A [4]): 20%

Question: `O=C(C/C(=C\c1cn(-c2ccccc2)nc1-c1ccccc1)c1n[nH]c(=S)o1)c1ccc(Cl)cc1` was tested. Which Activity (Hepatovirus A [1]) did it give?
Answer: 0%

Question: What about the Activity (Human alphaherpesvirus 1 [2]) of the same molecule?
Answer: 45%

Question: What about the Activity (Human alphaherpesvirus 1 [3]) of the same molecule?
Answer: 14%

Question: What about the Activity (Hepatovirus A [4]) of the same molecule?
Answer: 0%

Question: What does the source list for `O=C(NCc1ccccc1)/C(=C/c1cn(-c2ccccc2)nc1-c1ccccc1)CC(=O)c1ccc(Cl)cc1`?
Answer: Activity (Hepatovirus A [1]): 40%; Activity (Human alphaherpesvirus 1 [2]): 23.8%; Activity (Human alphaherpesvirus 1 [3]): 4%; Activity (Hepatovirus A [4]): 60%

Question: For `O=C(C/C(=C\c1cn(-c2ccccc2)nc1-c1ccccc1)c1n[nH]c(=O)[nH]1)c1ccc(Cl)cc1`, which Activity (Hepatovirus A [1]) is on record?
Answer: 0%

Question: What about the Activity (Human alphaherpesvirus 1 [2]) of the same molecule?
Answer: 14%

Question: And the Activity (Human alphaherpesvirus 1 [3])?
Answer: 0%

Question: What about the Activity (Hepatovirus A [4]) of the same molecule?
Answer: 10%

Question: `COc1ccc(-c2cc(Cc3cn(-c4ccccc4)nc3-c3ccccc3)c(=O)[nH]n2)cc1` was tested. Which Activity (Hepatovirus A [1]) did it give?
Answer: 20%

Question: And the Activity (Human alphaherpesvirus 1 [2])?
Answer: 47%

Question: What about the Activity (Human alphaherpesvirus 1 [3]) of the same molecule?
Answer: 21%

Question: What about the Activity (Hepatovirus A [4]) of the same molecule?
Answer: 50%

Question: `O=C(C/C(=C\c1cn(-c2ccccc2)nc1-c1ccccc1)c1n[nH]c(=S)[nH]1)c1ccc(Cl)cc1` was tested. Which Activity (Hepatovirus A [1]) did it give?
Answer: 40%

Question: And the Activity (Human alphaherpesvirus 1 [2])?
Answer: 38%

Question: What about the Activity (Human alphaherpesvirus 1 [3]) of the same molecule?
Answer: 0%

Question: What about the Activity (Hepatovirus A [4]) of the same molecule?
Answer: 50%
